Test results taken from ChEMBL document CHEMBL4028887, “Improvement of Cell Permeability of Human Neuronal Nitric Oxide Synthase Inhibitors Using Potent and Selective 2-Aminopyridine-Based Scaffolds with a Fluorobenzene Linker” (J Med Chem, 2017).

Experiments:
[1] = molecular target: T1, Nitric oxide synthase, inducible (Mus musculus, UniProt P29477)
T1 sequence (P29477 whole entry): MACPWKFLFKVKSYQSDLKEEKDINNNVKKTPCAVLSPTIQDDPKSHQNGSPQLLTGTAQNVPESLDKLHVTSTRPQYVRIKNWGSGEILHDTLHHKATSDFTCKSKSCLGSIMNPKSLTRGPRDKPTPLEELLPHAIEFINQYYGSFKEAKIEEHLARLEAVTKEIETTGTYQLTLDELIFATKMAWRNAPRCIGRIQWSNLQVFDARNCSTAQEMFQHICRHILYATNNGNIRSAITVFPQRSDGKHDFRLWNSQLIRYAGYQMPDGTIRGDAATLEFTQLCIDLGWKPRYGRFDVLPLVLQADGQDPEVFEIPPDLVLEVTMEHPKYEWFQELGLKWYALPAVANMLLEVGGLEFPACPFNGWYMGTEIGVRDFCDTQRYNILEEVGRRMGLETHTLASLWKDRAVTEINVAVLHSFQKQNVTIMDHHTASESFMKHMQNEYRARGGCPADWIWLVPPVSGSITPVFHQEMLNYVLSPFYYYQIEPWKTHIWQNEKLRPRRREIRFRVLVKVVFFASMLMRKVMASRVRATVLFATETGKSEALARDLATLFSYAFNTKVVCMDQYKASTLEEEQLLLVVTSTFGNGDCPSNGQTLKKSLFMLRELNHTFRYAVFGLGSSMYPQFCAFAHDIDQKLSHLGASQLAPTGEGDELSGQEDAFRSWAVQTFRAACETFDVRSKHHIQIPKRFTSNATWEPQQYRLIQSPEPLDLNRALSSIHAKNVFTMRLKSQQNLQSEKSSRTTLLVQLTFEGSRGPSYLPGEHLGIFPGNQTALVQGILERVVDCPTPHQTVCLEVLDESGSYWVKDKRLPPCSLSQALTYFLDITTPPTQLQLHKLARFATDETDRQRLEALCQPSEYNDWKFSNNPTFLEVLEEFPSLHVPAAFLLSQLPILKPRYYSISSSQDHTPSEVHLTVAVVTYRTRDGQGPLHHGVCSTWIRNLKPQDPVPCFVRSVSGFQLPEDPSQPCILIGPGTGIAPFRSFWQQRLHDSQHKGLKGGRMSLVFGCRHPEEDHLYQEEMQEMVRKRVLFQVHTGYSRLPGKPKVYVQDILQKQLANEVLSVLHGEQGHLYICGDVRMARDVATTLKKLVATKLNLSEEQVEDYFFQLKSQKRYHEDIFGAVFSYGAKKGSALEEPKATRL

[2] = molecular target: T2, Nitric oxide synthase 3 (Homo sapiens, UniProt P29474); format: ADME
T2 sequence (P29474 whole entry): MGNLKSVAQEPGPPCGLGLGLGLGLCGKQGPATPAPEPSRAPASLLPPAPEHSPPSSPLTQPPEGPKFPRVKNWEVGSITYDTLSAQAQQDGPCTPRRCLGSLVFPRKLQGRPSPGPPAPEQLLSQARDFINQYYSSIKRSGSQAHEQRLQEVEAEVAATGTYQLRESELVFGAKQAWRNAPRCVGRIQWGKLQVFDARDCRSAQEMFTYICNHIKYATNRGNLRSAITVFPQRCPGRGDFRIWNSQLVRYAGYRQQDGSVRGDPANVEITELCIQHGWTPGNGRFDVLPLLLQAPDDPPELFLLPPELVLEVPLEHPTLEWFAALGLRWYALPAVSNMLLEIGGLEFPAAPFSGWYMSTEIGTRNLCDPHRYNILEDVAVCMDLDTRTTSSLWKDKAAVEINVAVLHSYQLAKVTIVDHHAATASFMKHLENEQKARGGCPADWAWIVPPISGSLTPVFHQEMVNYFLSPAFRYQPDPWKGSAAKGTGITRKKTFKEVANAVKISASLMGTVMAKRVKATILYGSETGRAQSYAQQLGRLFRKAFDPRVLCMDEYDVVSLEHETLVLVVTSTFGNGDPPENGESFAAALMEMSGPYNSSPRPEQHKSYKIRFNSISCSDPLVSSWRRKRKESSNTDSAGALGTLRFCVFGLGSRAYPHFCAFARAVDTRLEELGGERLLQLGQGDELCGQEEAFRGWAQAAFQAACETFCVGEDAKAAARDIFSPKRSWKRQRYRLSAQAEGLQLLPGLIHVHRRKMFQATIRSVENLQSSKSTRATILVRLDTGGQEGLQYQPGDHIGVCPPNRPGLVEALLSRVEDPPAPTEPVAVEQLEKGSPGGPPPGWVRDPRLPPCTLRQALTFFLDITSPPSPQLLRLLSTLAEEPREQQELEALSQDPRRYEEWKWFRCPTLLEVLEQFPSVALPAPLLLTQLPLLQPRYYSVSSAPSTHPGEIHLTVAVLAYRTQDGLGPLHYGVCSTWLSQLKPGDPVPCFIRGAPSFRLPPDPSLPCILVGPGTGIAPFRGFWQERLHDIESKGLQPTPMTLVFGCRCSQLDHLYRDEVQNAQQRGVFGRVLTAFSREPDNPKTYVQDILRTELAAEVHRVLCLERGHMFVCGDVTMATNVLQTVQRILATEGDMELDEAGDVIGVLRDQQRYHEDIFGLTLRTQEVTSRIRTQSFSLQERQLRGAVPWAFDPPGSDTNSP

[3] = molecular target: Nitric oxide synthase 1 (Homo sapiens, UniProt P29475); experiment: Inhibition of human neuronal NOS expressed in Escherichia coli using L-arginine as substrate assessed as reduction in NO production by measuring oxidation of oxyHb to metHb measured for 6 mins by hemoglobin- NO capture assay
[4] = molecular target: Nitric oxide synthase 1 (Rattus norvegicus, UniProt P29476)
[5] = physchem; conditions: PAMPA

Sequence of Nitric oxide synthase 1 (Homo sapiens, UniProt P29475) (P29475 whole entry): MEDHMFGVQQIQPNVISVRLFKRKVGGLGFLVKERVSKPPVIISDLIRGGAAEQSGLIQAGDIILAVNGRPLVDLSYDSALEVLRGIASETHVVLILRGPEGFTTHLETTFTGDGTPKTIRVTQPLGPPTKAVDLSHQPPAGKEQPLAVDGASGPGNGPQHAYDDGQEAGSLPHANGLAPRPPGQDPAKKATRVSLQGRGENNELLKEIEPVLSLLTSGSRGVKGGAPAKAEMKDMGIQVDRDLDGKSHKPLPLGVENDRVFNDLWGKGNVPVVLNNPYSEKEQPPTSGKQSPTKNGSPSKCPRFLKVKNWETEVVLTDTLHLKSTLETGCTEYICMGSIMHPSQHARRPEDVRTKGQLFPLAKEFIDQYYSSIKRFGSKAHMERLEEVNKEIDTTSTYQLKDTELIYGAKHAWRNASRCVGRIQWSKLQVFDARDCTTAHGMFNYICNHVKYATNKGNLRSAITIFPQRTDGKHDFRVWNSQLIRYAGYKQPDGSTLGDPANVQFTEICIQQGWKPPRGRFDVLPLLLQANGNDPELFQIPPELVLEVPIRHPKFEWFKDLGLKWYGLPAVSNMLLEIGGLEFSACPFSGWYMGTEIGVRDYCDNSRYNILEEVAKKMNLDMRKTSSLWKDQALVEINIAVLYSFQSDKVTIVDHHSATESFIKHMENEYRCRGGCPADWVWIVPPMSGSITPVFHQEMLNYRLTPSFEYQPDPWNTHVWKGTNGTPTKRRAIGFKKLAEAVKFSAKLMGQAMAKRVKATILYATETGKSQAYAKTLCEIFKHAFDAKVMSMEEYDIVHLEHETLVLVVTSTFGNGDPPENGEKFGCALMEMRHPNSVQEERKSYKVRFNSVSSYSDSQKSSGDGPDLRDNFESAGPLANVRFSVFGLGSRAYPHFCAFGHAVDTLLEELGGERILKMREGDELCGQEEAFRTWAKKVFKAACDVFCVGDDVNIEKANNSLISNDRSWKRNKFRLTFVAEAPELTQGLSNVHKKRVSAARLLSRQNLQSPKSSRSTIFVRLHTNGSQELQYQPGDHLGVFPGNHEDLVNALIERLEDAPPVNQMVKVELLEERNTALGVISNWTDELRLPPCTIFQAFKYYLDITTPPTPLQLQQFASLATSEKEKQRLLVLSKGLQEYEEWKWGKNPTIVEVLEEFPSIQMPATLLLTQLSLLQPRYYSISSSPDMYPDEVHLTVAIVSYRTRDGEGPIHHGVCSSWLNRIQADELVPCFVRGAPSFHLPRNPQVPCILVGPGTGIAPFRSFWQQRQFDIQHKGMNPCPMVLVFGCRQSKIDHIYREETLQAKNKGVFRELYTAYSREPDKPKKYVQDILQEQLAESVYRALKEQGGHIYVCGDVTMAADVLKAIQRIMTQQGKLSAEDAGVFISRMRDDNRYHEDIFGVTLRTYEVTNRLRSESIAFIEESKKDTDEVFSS
Sequence of Nitric oxide synthase 1 (Rattus norvegicus, UniProt P29476) (P29476 whole entry): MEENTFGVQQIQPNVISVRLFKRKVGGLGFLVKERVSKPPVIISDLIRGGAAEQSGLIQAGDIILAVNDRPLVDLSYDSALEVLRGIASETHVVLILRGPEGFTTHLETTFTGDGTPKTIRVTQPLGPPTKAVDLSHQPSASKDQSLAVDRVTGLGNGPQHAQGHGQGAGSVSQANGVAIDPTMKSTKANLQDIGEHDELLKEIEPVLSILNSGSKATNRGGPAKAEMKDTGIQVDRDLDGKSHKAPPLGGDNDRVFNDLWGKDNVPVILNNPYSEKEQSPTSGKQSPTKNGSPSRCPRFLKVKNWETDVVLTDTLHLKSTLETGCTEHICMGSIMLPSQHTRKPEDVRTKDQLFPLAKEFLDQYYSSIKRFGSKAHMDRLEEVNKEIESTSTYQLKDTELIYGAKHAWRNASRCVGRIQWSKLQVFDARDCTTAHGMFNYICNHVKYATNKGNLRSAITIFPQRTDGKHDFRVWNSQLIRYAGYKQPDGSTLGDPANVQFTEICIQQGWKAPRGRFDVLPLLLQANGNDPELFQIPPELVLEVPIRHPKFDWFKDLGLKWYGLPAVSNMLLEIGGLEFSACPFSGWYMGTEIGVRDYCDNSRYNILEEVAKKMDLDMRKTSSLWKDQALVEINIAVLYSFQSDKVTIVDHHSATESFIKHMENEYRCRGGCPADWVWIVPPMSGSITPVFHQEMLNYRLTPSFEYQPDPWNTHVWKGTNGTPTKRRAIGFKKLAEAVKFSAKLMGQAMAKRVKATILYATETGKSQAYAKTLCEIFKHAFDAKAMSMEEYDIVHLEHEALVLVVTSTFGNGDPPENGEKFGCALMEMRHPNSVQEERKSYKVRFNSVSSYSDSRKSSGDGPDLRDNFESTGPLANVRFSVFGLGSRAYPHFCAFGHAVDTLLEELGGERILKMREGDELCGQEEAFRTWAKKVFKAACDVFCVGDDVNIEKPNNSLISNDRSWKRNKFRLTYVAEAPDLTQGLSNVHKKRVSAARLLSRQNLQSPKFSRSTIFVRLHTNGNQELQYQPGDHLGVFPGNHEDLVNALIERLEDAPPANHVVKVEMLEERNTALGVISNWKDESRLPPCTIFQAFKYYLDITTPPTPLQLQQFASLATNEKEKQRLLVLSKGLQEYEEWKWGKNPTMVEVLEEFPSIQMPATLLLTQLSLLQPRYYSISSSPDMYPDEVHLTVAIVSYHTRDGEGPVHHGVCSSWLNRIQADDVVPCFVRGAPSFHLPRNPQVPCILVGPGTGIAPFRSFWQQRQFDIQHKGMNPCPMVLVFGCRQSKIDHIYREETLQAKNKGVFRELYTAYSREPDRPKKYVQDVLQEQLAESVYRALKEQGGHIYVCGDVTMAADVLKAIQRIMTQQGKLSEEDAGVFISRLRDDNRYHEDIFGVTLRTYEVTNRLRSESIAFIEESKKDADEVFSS

| SMILES | Ki [1] [nM] | Ki [2] [nM] | Ki [3] [nM] | Ki [4] [nM] | Papp at 17 h, 200 µM [5] [×10⁻⁶ cm/s] |
| --- | --- | --- | --- | --- | --- |
| CNCc1cccc(-c2cc(F)cc(CCc3cc(C)cc(N)n3)c2)c1 | 3010 | 19400 | 83 | 44 | 17.4 |
| CNCCCc1cc(CCc2cc(C)cc(N)n2)cc(C(F)(F)F)c1 | 33700 | 51500 | 598 | 346 | – |
| CNCCCc1cc(F)cc(CCc2cc(C)cc(N)n2)c1 | 4650 | 39500 | 65 | 41 | – |
| CNCc1ccc(-c2cncc(CCc3cc(C)cc(N)n3)c2)cc1 | 4210 | – | 100 | 57 | – |
| Cc1cc(N)nc(CCc2cc(CCCN(C)C)cc(C(F)(F)F)c2)c1 | 36000 | – | – | 541 | – |
| CNCCCc1cc(C#N)cc(CCc2cc(C)cc(N)n2)c1 | 16200 | 42100 | 516 | 252 | – |
| CNc1cccc(-c2cncc(CCc3cc(C)cc(N)n3)c2)c1 | 6700 | – | – | 1700 | – |
| Cc1cc(N)nc(CCc2cc(C#N)cc(CCCN(C)C)c2)c1 | 16400 | – | – | 232 | – |

Further compounds by falling Ki [1], results first:

| Ki [1] [nM] | Ki [2] [nM] | Ki [3] [nM] | Ki [4] [nM] | Papp at 17 h, 200 µM [5] [×10⁻⁶ cm/s] | SMILES |
| --- | --- | --- | --- | --- | --- |
| 10900 | 69900 | 362 | 185 | – | CNCc1ccc(-c2cc(F)cc(CCc3cc(C)cc(N)n3)c2)cc1 |
| 3610 | 20100 | 55 | 48 | 10.4 | CNCCCc1cccc(CCc2cc(C)cc(N)n2)c1 |
| 3460 | 20800 | 43 | 60 | – | Cc1cc(N)nc(CCc2cccc(CCCN(C)C)c2)c1 |
| 3010 | 8670 | 82 | 47 | 5.56 | CNCc1cccc(-c2cncc(CCc3cc(C)cc(N)n3)c2)c1 |
